Results on one compound are retold here after patent publication US8148392B2, “2-indolyl imidazo [4,5-d] phenanthroline derivatives and their use in the treatment of cancer” (Lorus Therapeutics Inc., priority 2005, dated 2012).

For experiment [1], the system named is CCRF-CEM leukemia cell line. The experiment can be described thus: NCI DTP in vitro screen, CCRF-CEM. Particulars: Homo sapiens. Format: cell-based. As to the method:
(§1) For example, the following methodology, which is currently employed by the NCI, can be used to assess the GI50 of a candidate compound of Formula I in the selected cancer cell lines. Briefly, cell suspensions are diluted (5000-40,000 cells per well) and 100 μL of the diluted cell suspension is added into 96-well microtiter plates. Inoculates are allowed a preincubation period of 24 h at 37° C. for stabilization. Dilutions at twice the intended test concentration of the candidate compound are added at time zero in 100 μL aliquots to the microtiter plate wells. Test compounds are generally evaluated at five 10-fold dilutions. In routine testing, the highest well concentration is usually 10E-4 M, but this may be adjusted depending on the compound being tested. […] The cells are then assayed by using the sulforhodamine B assay (see, for example, Skehan, P., et al. (1990) JNCI, J. Natl. Cancer Inst. 82, 1107-1112; and Chen, S. F., et al. (1990) Proc. Am. Assoc. Cancer Res. 31, A2644) employing a plate reader which can be used to read the optical densities.
(§2) Compounds 2 and 3 were evaluated for their antiproliferative effects in a panel of 60 human cancer cell lines as part of the in vitro anticancer screening services provided by the DTP (Developmental Therapeutics Program) of the US National Cancer Institute (NCI).

Experiment [2] relates to MT-1 isolated from rabbit liver. The experiment can be described thus: Chelation of zinc from metallothionein MT-1, PAR colorimetric zinc assay. The format is biochemical. The following applies: 25 μM MT, compound 0.15 to 60 μM, 15 min. From the text: Intracellular zinc exists as a labile pool, loosely bound to storage proteins metallothioneins (MT), which store up to 7 or 8 zinc per molecule. The labile zinc pool donates zinc to enzymes or transcription factors, which require reversible binding with zinc for their full activity (Tapiero and Tew (2003) Biomed Pharmacother 57(9): 399-411). The efficiency of compound 3 to remove zinc from MT was investigated. MT-1 isolated from rabbit liver, containing mainly MT-1a and MT-2e with ˜7 zinc per molecule in ≧95% of MT was purchased from Alexis Biochemicals (Lausen, Switzerland). The content of zinc in MT was measured in vitro using 4-(2-pyridylazo) resorcinol (PAR) colorimetric zinc assay as described in the preceding Examples. The change in absorbance of PAR after PAR-zinc ion complex formation was measured at 500 nm (Dinkova-Kostova et al., (2005) Biochemistry 44(18): 6889-6899). To determine chelation of zinc from MT-1 by compound 3 in vitro, MT-125 μM in […] volume of 0.2M Tris-HCl, pH 7.5 was added to 96-well plate. Compound 3 (0.15 to 60 μM) in 80% acetonitrile/20% DMSO was added to MT-1 for 15 min at room temperature. PAR (200 μM in 0.2M Tris-HCl, pH 7.5) was added and the color development of PAR-zinc complex was measured by a multi-well spectrophotometer at 500 nm as shown in FIG. 47.

The test system of experiment [3] is copper transporter, Ctrl also known as SLC31A1. The experiment can be described thus: Copper transporter Ctr1 (SLC31A1) gene expression in HT-29 cells, RT-PCR. Format: cell-based, human. As to the method:
The effect of compound 3 and compound 7 treatment on the expressions of a zinc-storage protein meallothionein 1A (MT1A) (FIG. 29A), a copper transporter, Ctrl also known as SLC31A1 (FIG. 29B) and an iron transporter; transferrin receptor 1 (TfR1) (FIG. 29C) were measured and compared with a known zinc chelator TPEN, a copper chelator tetramine and an iron chelator DFO, respectively. Despite in vitro chelation of Cu^+2, increase in copper-sensitive gene after compound 3 treatment was transient.

A further experiment relates to CCRF-CEM leukemia cells. Put plainly: Apoptosis, annexin V-FITC/PI flow cytometry, CCRF-CEM. The following applies: 0.1-1 μM, 24 hours. The format is cell-based, human. The method, then:
The ability of compound 3 to alter the population of cells at different stages of apoptosis was measured by determining the effect of compound 3 on populations of CCRF-CEM leukemia cells treated with vehicle (DMSO), 0.1 μM, 0.25 μM, 0.5 μM, or 1 μM of compound 3 for 24 hours. CCRF-CEM cells were seeded and treated with the above concentrations of compound 3 or 0.1% DMSO vehicle control as described in Example 23. After 24 hours, the cells were collected by centrifugation and re-suspended in growth media to approximately 1×10^6 cells/ml. Then the cells were stained for annexin V binding and PI staining using the annexin V-FITC apoptosis detection kit (Oncogene™ research products, Mass.) and following the manufacturer's RAPID Annexin V Binding protocol. The fluorescence of stained cells was analyzed using FACScan flow cytometer and the Cell Quest program (BD Biosciences, San Jose, Calif.). Data were evaluated using Modfit software (Verity software House, Topsham, Me.) to generate quadrant statistics. Cells stained with Annexin V only are considered to be in early apoptosis, whereas cells stained with both Annexin V and propidium iodide are considered to be in late apoptosis. Cells stained with propidium iodide only are non-viable, whereas no staining indicates viable cells. MOLT-4 leukemia cells were treated similarly.
On the technique in general: Flow cytometry measures light scatter and fluorescence of single cells or particles in a stream.

The subject of the next experiment is K-562 leukemia cell line. The experiment can be described thus: NCI DTP in vitro screen, K-562. The following applies: K-562, in words. Format: cell-based, human. The method, then:
as §1, §2

The next experiment relates to KLF4. Put plainly: KLF4 binding to Cyclin D1 promoter, ChIP, HT-29. Format: cell-based, human. Particulars: HT-29, ChIP. As to the method:
Based on overlapping transcription factor binding sites on Cyclin D1 gene promoter region (FIG. 33A), increased binding of a negative regulator KLF4 may replace the binding of a positive regulator Sp1. In vivo KLF4 and Sp1 binding to Cyclin D1 promoter was shown by chromatin immuno-precipitation assay (ChIP) (FIG. 33B).
Chromatin immunoprecipitation (ChIP) was performed as follows. Cell lysates from HT-29 cells (5.5×10^5 cells in three 15 cm-culture plates in each experimental group) were prepared at the end of the indicated experiments, and ChIP assays were performed using anti-KLF4 and anti-Sp1 antibodies (Santa Cruz Biotechnology Inc.) and ChIP-ITTM kit (Active Motif, Carlsbad, Calif.) by following the manufacturer's instruction. The primers encompassing-231 to -92 region of Cyclin D1 promoter; 5′ primer (5′-CGGACTACAGGGGCAA-3′) [SEQ ID NO:1] and 3′ primer (5′-GCTCCAGGACTTTGCA-3′) [SEQ ID NO:2] were synthesized at Invitrogen.

Another experiment relates to KLF4 protein. Put plainly: KLF4 protein in HT-29 cells, Western blot. The format is cell-based, human. The following applies: HT-29, 2.5, 5, 7.5 and 10 μM, 16 hours. The method, then: The ability of compound of Formula I to increase expression of KLF4 protein was determined as follows. HT-29 cells were treated with vehicle control (DMSO), TPEN (4 μM), ZnCl2 (100 μM), or compound 3 (2.5, 5, 7.5 and 10 μM) for 16 hours. Cells were lysed and subjected to Western blot with anti-KLF4 antibodies, or GAPDH antibodies to ensure equal protein loading.

The test system of another experiment is KLF5. Put plainly: KLF5 gene expression in HT-29 cells, RT-PCR. The format is cell-based, human. Particulars: HT-29, 1 μM, after 4 hr. As to the method: HT-29 cells were treated with 1 μM compound 3 for indicated time (FIG. 41B). Total RNA was extracted and gene expression level was determined by RT-PCR.

By GI50 is commonly meant the concentration that inhibits growth by half. Low readings indicate more potent growth inhibition, high ones less potent growth inhibition. For the compound `Cc1[nH]c2ccccc2c1-c1nc2c3cccnc3c3ncccc3c2[nH]1` [Compound 3], the concentration for 50% growth inhibition (GI50) in experiment [1] is 30 nM; with K-562 leukemia cell line it was “nanomolar range”. Besides, the “PAR absorbance of MT (removal of zinc from metallothionein)” value in experiment [2] is “Dose-dependent decreases in PAR absorbance”. Further, the copper-sensitive gene expression entry in experiment [3] is “transient”. In addition, the induction of apoptosis entry in the experiment on CCRF-CEM leukemia cells is “increase in the number of early and late apoptotic cells”. In the experiment on KLF4, the “KLF4 binding to Cyclin D1 promoter” value was “Increased KLF4”. Besides, the “level of KLF4 protein” value in the experiment with KLF4 protein is on record as “able to increase the level of KLF4 protein”. For the same compound, the KLF5 gene expression entry in the experiment on KLF5 is “decrease in KLF5 gene expression”.
